Results as given in PubChem BioAssay AID1963848 (Molecular Pharmacology Branch, DTP, NCI, 2024).

System: 379773-124-R-J2-PDC spheroid viability
Assay: Anticancer human tumor 379773-124-R-J2-PDC patient-derived endometrial carcinoma cell line growth inhibition [POLQ]
Settings: spheroids with HUVEC and MSC; for IC50: curve of first compound; for viability, T/C: stronger effect = lower value
Outline: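 Three-cell-type spheroids modelling solid tumor plus stroma served as the readout system; POL inhibitors were tested individually and in combination, concentration ranges set by clinical Cmax where known.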

[1] = second compound 0.0316 µM, first compound 0.0316 µM
[2] = second compound 0.0316 µM, first compound 0.1 µM
[3] = second compound 0.0316 µM, first compound 0.316 µM
[4] = second compound 0.0316 µM, first compound 1 µM
[5] = second compound 0.0316 µM, first compound 3.16 µM
[6] = second compound 0.0316 µM, first compound 10 µM
[7] = second compound 0.1 µM, first compound 0.0316 µM
[8] = second compound 0.1 µM, first compound 0.1 µM
[9] = second compound 0.1 µM, first compound 0.316 µM
[10] = second compound 0.1 µM, first compound 1 µM
[11] = second compound 0.1 µM, first compound 3.16 µM
[12] = second compound 0.1 µM, first compound 10 µM
[13] = second compound 0.316 µM, first compound 0.0316 µM
[14] = second compound 0.316 µM, first compound 0.1 µM
[15] = second compound 0.316 µM, first compound 0.316 µM
[16] = second compound 0.316 µM, first compound 1 µM
[17] = second compound 0.316 µM, first compound 3.16 µM
[18] = second compound 0.316 µM, first compound 10 µM
[19] = second compound 1 µM, first compound 0.0316 µM
[20] = second compound 1 µM, first compound 0.1 µM
[21] = second compound 1 µM, first compound 0.316 µM
[22] = second compound 1 µM, first compound 1 µM
[23] = second compound 1 µM, first compound 3.16 µM
[24] = second compound 1 µM, first compound 10 µM
[25] = second compound 3.16 µM, first compound 0.0316 µM
[26] = second compound 3.16 µM, first compound 0.1 µM
[27] = second compound 3.16 µM, first compound 0.316 µM
[28] = second compound 3.16 µM, first compound 1 µM
[29] = second compound 3.16 µM, first compound 3.16 µM
[30] = second compound 3.16 µM, first compound 10 µM
[31] = second compound 10 µM, first compound 0.0316 µM
[32] = second compound 10 µM, first compound 0.1 µM
[33] = second compound 10 µM, first compound 0.316 µM
[34] = second compound 10 µM, first compound 1 µM
[35] = second compound 10 µM, first compound 3.16 µM
[36] = second compound 10 µM, first compound 10 µM
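Further: spheroids exposed to drugs for seven days before readout.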
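Wherever viability, T/C is given: percent viability relative to DMSO vehicle control taken as 100%.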

O=C(c1cc(Cc2n[nH]c(=O)c3ccccc23)ccc1F)N1CCN(C(=O)C2CC2)CC1 + Cc1cccc(N(C)C(=O)C2C(O)CCN2c2nc(C)cc(C(F)(F)F)c2C#N)c1
IC50 (second compound 0.0316 µM): 6370 nM
IC50 (second compound 0.1 µM): 7600 nM
IC50 (second compound 0.316 µM): 8220 nM
IC50 (second compound 1 µM): 8160 nM
IC50 (second compound 3.16 µM): 6720 nM
IC50 (second compound 10 µM): 6140 nM
viability, T/C [1]: 79.5%
viability, T/C [2]: 89.5%
viability, T/C [3]: 83.8%
viability, T/C [4]: 80.9%
viability, T/C [5]: 76.8%
viability, T/C [6]: 32.7%
viability, T/C [7]: 89.2%
viability, T/C [8]: 89.6%
viability, T/C [9]: 75.7%
viability, T/C [10]: 75.8%
viability, T/C [11]: 74.1%
viability, T/C [12]: 42.5%
viability, T/C [13]: 90.2%
viability, T/C [14]: 80.2%
viability, T/C [15]: 82.8%
viability, T/C [16]: 85.3%
viability, T/C [17]: 71.7%
viability, T/C [18]: 45.1%
viability, T/C [19]: 88.3%
viability, T/C [20]: 87.9%
viability, T/C [21]: 77.7%
viability, T/C [22]: 83.5%
viability, T/C [23]: 95.4%
viability, T/C [24]: 42.2%
viability, T/C [25]: 73.5%
viability, T/C [26]: 78.4%
viability, T/C [27]: 81.5%
viability, T/C [28]: 76.7%
viability, T/C [29]: 97.2%
viability, T/C [30]: 33.4%
viability, T/C [31]: 78.2%
viability, T/C [32]: 78.9%
viability, T/C [33]: 85.5%
viability, T/C [34]: 72.4%
viability, T/C [35]: 73.4%
viability, T/C [36]: 33.7%

Nc1ccn(C2OC(CO)C(O)C2(F)F)c(=O)n1 (stereo unspecified) + Nc1ccc(C#CCN(C(=O)Cc2ncc(C(F)(F)F)cc2C(F)(F)F)c2ccc(F)cc2)nn1
IC50 (second compound 0.0316 µM): < 31.6 nM
IC50 (second compound 0.1 µM): < 31.6 nM
IC50 (second compound 0.316 µM): < 31.6 nM
IC50 (second compound 1 µM): < 31.6 nM
IC50 (second compound 3.16 µM): 42 nM
IC50 (second compound 10 µM): 71.9 nM
viability, T/C [1]: 15.1%
viability, T/C [2]: 10.6%
viability, T/C [3]: 11.7%
viability, T/C [4]: 13.6%
viability, T/C [5]: 12.6%
viability, T/C [6]: 9.91%
viability, T/C [7]: 19.5%
viability, T/C [8]: 11.3%
viability, T/C [9]: 11.3%
viability, T/C [10]: 11.7%
viability, T/C [11]: 12.6%
viability, T/C [12]: 11.1%
viability, T/C [13]: 24%
viability, T/C [14]: 12.2%
viability, T/C [15]: 10.3%
viability, T/C [16]: 13.1%
viability, T/C [17]: 12%
viability, T/C [18]: 12%
viability, T/C [19]: 36.3%
viability, T/C [20]: 11.9%
viability, T/C [21]: 10.3%
viability, T/C [22]: 9.8%
viability, T/C [23]: 10.8%
viability, T/C [24]: 12.4%
viability, T/C [25]: 61.2%
viability, T/C [26]: 15.9%
viability, T/C [27]: 10.5%
viability, T/C [28]: 10.6%
viability, T/C [29]: 9.92%
viability, T/C [30]: 10.9%
viability, T/C [31]: 96.1%
viability, T/C [32]: 31.3%
viability, T/C [33]: 12.7%
viability, T/C [34]: 9.85%
viability, T/C [35]: 10.6%
viability, T/C [36]: 9.44%

C=CCn1c(=O)c2cnc(Nc3ccc(N4CCN(C)CC4)cc3)nc2n1-c1cccc(C(C)(C)O)n1 + Cc1cccc(N(C)C(=O)C2C(O)CCN2c2nc(C)cc(C(F)(F)F)c2C#N)c1
IC50 (second compound 0.0316 µM): 457 nM
IC50 (second compound 0.1 µM): 441 nM
IC50 (second compound 0.316 µM): 411 nM
IC50 (second compound 1 µM): 416 nM
IC50 (second compound 3.16 µM): 443 nM
IC50 (second compound 10 µM): 406 nM
viability, T/C (second compound 0.0316 µM, first compound 0.00316 µM): 88.5%
viability, T/C (second compound 0.0316 µM, first compound 0.01 µM): 86%
viability, T/C [1]: 85.2%
viability, T/C [2]: 98%
viability, T/C [3]: 72.2%
viability, T/C [4]: 3.05%
viability, T/C (second compound 0.1 µM, first compound 0.00316 µM): 91.4%
viability, T/C (second compound 0.1 µM, first compound 0.01 µM): 98.3%
viability, T/C [7]: 93.1%
viability, T/C [8]: 98.1%
viability, T/C [9]: 68.8%
viability, T/C [10]: 3.55%
viability, T/C (second compound 0.316 µM, first compound 0.00316 µM): 100%
viability, T/C (second compound 0.316 µM, first compound 0.01 µM): 91.5%
viability, T/C [13]: 96.4%
viability, T/C [14]: 90.8%
viability, T/C [15]: 63.6%
viability, T/C [16]: 4%
viability, T/C (second compound 1 µM, first compound 0.00316 µM): 86.5%
viability, T/C (second compound 1 µM, first compound 0.01 µM): 96.7%
viability, T/C [19]: 95.1%
viability, T/C [20]: 95.3%
viability, T/C [21]: 64.9%
viability, T/C [22]: 2.86%
viability, T/C (second compound 3.16 µM, first compound 0.00316 µM): 98.2%
viability, T/C (second compound 3.16 µM, first compound 0.01 µM): 90.2%
viability, T/C [25]: 88.2%
viability, T/C [26]: 94%
viability, T/C [27]: 69.5%
viability, T/C [28]: 2.86%
viability, T/C (second compound 10 µM, first compound 0.00316 µM): 87.5%
viability, T/C (second compound 10 µM, first compound 0.01 µM): 86.1%
viability, T/C [31]: 85.9%
viability, T/C [32]: 89.5%
viability, T/C [33]: 63%
viability, T/C [34]: 3.05%
